Source: US11844801B2, “Oral compositions of MK2 pathway inhibitor for treatment of immune conditions” (priority 2020, dated 2023)

Legend:
TNFα = assay: LPS stimulated TNFα in differentiated U937 cells (hPBMC), ELISA; type: cell-based; conditions: Homo sapiens, U-937; LPS 0.1 μg/mL, 4 hours
Description: (§1) Therefore, inhibition of the p38 MAP Kinase pathway will lower the inflammatory response by decreasing biosynthesis of pro-inflammatory cytokines. […] The U937 human pre-monocytic cell line was obtained from the American Type Culture Collection (Rockville, MD). These cells were differentiated to a monocytic/macrophage phenotype as described by Burnette (Burnette et al, (2009). […] Differentiated U937 cells (human peripheral blood mononuclear cells (hPBMC)) were seeded into 96-well tissue culture plates (200,000 cells/well) in complete media. […] Culture media was then collected for determination of TNFα, IL-6 or IL-10 levels by ELISA. Cytokine concentrations were extrapolated from recombinant protein standard curves using a four-parameter logistic model and solving for IC50 after iterating to the best least-squares fit.

IL-1β = assay: LPS stimulated IL-1β in differentiated U937 cells (hPBMC), ELISA; type: cell-based; conditions: Homo sapiens, U-937; LPS 0.1 μg/mL, 4 hours
IL-6 = assay: LPS stimulated IL-6 in differentiated U937 cells (hPBMC), ELISA; type: cell-based; conditions: Homo sapiens, U-937; LPS 0.1 μg/mL, 4 hours
Description: as §1

[1] = MTX 7.5 mg single oral dose alone, fasted
[2] = Crystal form screen of Compound (P)-I; type: physicochemical; conditions: for Crystal form obtained, EV: evaporation; for Crystal form obtained, RC: rapid cooling 40 to −20° C.; for Crystal form obtained, TC: temperature-cycled slurry 5-40° C.
Description: Water-containing solvents with a variety of water activities (aw)^1 were also included to probe for the formation of hydrates. Temperatures ranging between 40° C. to −20° C.
The screening studies were comprised of the following crystallization modes: • Temperature-cycled ripening of API slurries between 5-40° C. for four days (TC) • Rapid cooling clarified saturated solutions from 40 to −20° C. and holding at −20° C. for three days (RC) • Slow evaporation of clarified solutions at RT over 14 days.

[3] = 2-Methoxyethanol:Isopropyl ether (20:80)
[4] = 2-propanol:Water (90:10), water activity 0.65
[5] = 2-propanol:Water (95:5), water activity 0.55
[6] = Acetone:Water (20:80), water activity 0.96
[7] = Acetone:Water (80:20), water activity 0.77
[8] = Acetonitrile:Water (90:10), water activity 0.76
[9] = Methanol:Water (90:10), water activity 0.33
[10] = Methanol:Water (95:5), water activity 0.20
[11] = Tetrahydrofuran::Water (20:80), water activity 0.82

Cc1cnc(-c2ccnc(C(C)(C)O)n2)cc1-n1c(C)cc(OCc2ncc(F)cc2F)c(Cl)c1=O (atropisomer, axis not shown; (M)) [(M)-I, (M)-3-chloro-4-((3,5-difluoropyridin-2-yl)methoxy)-2′-(2-(2-hydroxypropan-2-yl)pyrimidin-4-yl)-5′,6-dimethyl-2H-[1,4′-bipyridin]-2-one]
IC50 (TNFα): > 10000 µM
IC50 (IL-1β): > 10000 µM
IC50 (IL-6): > 10000 µM

CN(Cc1cnc2nc(N)nc(N)c2n1)c1ccc(C(=O)N[C@@H](CCC(=O)O)C(=O)O)cc1 [MTX, Methotrexate]
AUC0-∞ [1]: 562.2 (102.2) ng · h/mL
Cmax [1]: 163.3 (35.6) ng/mL
Tmax, median (min, max) [1]: 1.0 (0.5, 2.5) h
t1/2 [1]: 3.1 (0.7) h

Cc1cnc(-c2ccnc(C(C)(C)O)n2)cc1-n1c(C)cc(OCc2ncc(F)cc2F)c(Cl)c1=O (single isomer, unassigned) [(P)-I, (P)-3-chloro-4-((3,5-difluoropyridin-2-yl)methoxy)-2′-(2-(2-hydroxypropan-2-yl)pyrimidin-4-yl)-5′,6-dimethyl-2H-[1,4′-bipyridin]-2-one]
IC50 (TNFα): 0.004 µM
IC50 (IL-1β): 0.012 µM
IC50 (IL-6): 0.145 µM
Crystal form obtained, EV ([2]; 1,4-Dioxane): Form A
Crystal form obtained, EV ([2]; 1,4-Dioxane:Water (90:10), water activity 0.70): Form A
Crystal form obtained, EV ([2]; 1-Propanol): Form A
Crystal form obtained, EV ([2]; 2-Butanone): Form A
Crystal form obtained, EV [2, 3]: Form A
Crystal form obtained, EV ([2]; 2-Propanol): Form A
Crystal form obtained, EV [2, 4]: Form A
Crystal form obtained, EV [2, 5]: Form A
Crystal form obtained, EV ([2]; 4-Methyl-2-pentanone): Form A
Crystal form obtained, EV ([2]; Acetone): Form A
Crystal form obtained, EV [2, 6]: Form A
Crystal form obtained, EV [2, 7]: Form A
Crystal form obtained, EV ([2]; Acetone:Water (90:10), water activity 0.70): Form A
Crystal form obtained, EV ([2]; Acetonitrile): Form A
Crystal form obtained, EV [2, 8]: Form A
Crystal form obtained, EV ([2]; DMSO:t-butyl methyl ether (20:80)): Form A
Crystal form obtained, EV ([2]; Dichloromethane): Form A
Crystal form obtained, EV ([2]; Dimethyl carbonate): Form A
Crystal form obtained, EV ([2]; Ethanol): Form A
Crystal form obtained, EV ([2]; Ethyl acetate): Form A
Crystal form obtained, EV ([2]; Isopropyl acetate): Form A
Crystal form obtained, EV ([2]; Methanol): Form A
Crystal form obtained, EV [2, 9]: Form A
Crystal form obtained, EV [2, 10]: Form A
Crystal form obtained, EV ([2]; Nitromethane): Form A
Crystal form obtained, EV ([2]; Tetrahydrofuran): Form A
Crystal form obtained, EV [2, 11]: Form A
Crystal form obtained, EV ([2]; Tetrahydrofuran:Water (90:10), water activity 0.83): Form A
Crystal form obtained, EV ([2]; Toluene): Form A
Crystal form obtained, RC [2, 4]: Form A
Crystal form obtained, RC [2, 7]: Form A
Crystal form obtained, RC ([2]; Acetonitrile): Form A
Crystal form obtained, RC [2, 9]: Form A
Crystal form obtained, RC ([2]; Nitromethane): Form A
Crystal form obtained, TC ([2]; 1-Butanol): Form A
Crystal form obtained, TC ([2]; 1-Methoxy-2-propanol:Isopropyl ether (20:80)): Form A
Crystal form obtained, TC [2, 3]: Form A
Crystal form obtained, TC ([2]; 2-Methoxyethyl ether:Heptane (20:80)): Form A
Crystal form obtained, TC ([2]; 2-Propanol): Form A
Crystal form obtained, TC [2, 5]: Form A
Crystal form obtained, TC ([2]; 4-Methyl-2-pentanone): Form A
Crystal form obtained, TC ([2]; 4-Methyl-2-pentanone:heptane (20:80)): Form A
Crystal form obtained, TC [2, 6]: Form A
Crystal form obtained, TC ([2]; Acetonitrile): Form A
Crystal form obtained, TC [2, 8]: Form A
Crystal form obtained, TC ([2]; Acetonitrile:Water (95:5), water activity 0.94): Form A
Crystal form obtained, TC ([2]; Acetonitrile:isopropyl ethyl ether (20:80)): Form A
Crystal form obtained, TC ([2]; Chlorobenzene:Cyclohexane (20:80)): Form A
Crystal form obtained, TC ([2]; Cyclohexane): Form A
Crystal form obtained, TC ([2]; Dimethyl carbonate): Form A
Crystal form obtained, TC ([2]; Ethanol:Water (20:80), water activity 0.93): Form A
Crystal form obtained, TC ([2]; Ethyl acetate:cyclohexane (20:80)): Form A
Crystal form obtained, TC ([2]; Heptane): Form A
Crystal form obtained, TC ([2]; Isopropyl acetate): Form A
Crystal form obtained, TC ([2]; Isopropyl ether): Form A
Crystal form obtained, TC [2, 9]: Form A
Crystal form obtained, TC [2, 10]: Form A
Crystal form obtained, TC ([2]; Methyl acetate:Heptane (20:80)): Form A
Crystal form obtained, TC ([2]; N,N-Dimethylformamide:Water (20:80), water activity 0.95): Form A
Crystal form obtained, TC ([2]; Nitromethane): Form A
Crystal form obtained, TC [2, 11]: Form A
Crystal form obtained, TC ([2]; Toluene): Form A
Crystal form obtained, TC ([2]; Trifluoroethanol:Isopropyl ether (20:80)): Form A
Crystal form obtained, TC ([2]; Water, water activity 1.00): Form A
Crystal form obtained, TC ([2]; t-Butyl methyl ether): Form A
